Data taken from patent US20200230118A1, “USE OF BERBERINE OR ACTIVE METABOLITE THEREOF IN PREPARATION OF DRUG FOR PREVENTING AND/OR TREATING PHENYLKETONURIA” (Institute of Materia Medica, Chinese Academy of Medical …, priority 2017, published 2020).

Legend:
[1] = tested on: α-methylphenylalanine induced phenylketonuria model of suckling rats; experiment: Therapeutic effect in α-methylphenylalanine induced phenylketonuria model of suckling rats; format: in vivo, SD suckling rats
Experimental: The phenylpyruvate concentration and ratio of phenylalanine/tyrosine in blood are the key indicators for evaluating the therapeutic effect in phenylketonuria model of suckling rats.
SD suckling rats (1 day old) were purchased from Beijing Vital River Laboratory Animal Technology Co., Ltd. All the animals and female rats were fed in SPF environment (21±2° C., 12-hour photoperiod) and had free access to food and water during the experiment. Berberine was purchased from the J&K Technology Co. LTD (Beijing, China). Phenylpyruvate, phenylalanine, and tyrosine were purchased from Solarbio Science&Technology Co. LTD (Beijing, China). α-Methylphenylalanine was purchased from Sinuokai Technology Co. LTD (Nanjing, China).
High-performance liquid chromatography-triple quadrupole tandem mass spectrometry (LC-MS/MS 8050, Shimadzu Corporation, Japan) was used to quantitatively determine the concentration of dopa, phenylalanine, tyrosine, and phenylpyruvate. Alltima C18 (5 μm, 4.6×150 mm) chromatography column was used in the experiment, and the column temperature was maintained at 40° C. The mobile phase to measure L-dopa was water-formic acid (100: 0.2 v/v) and acetonitrile. The condition of gradient elution was as follows (A: B, 0 min, 90:10; 2.5 min, 80:20; 2.51 min, 5:95; 5 min, 5:95; 5.01 min, 90:10; 8 min 90:10). The flow rate was 0.8 mL/min. Multi-reaction monitoring mode was used for quantization, and the quantitative ion pair of dopa was 198.15→[…] (m/z). Phenylalanine, tyrosine, and phenylpyruvate level were determined using Alltima C18 (5 μm, 4.6×150 mm) chromatography column at column temperature of 40° C. The mobile phase contained water-formic acid (100:0.1 v/v) and methanol. The condition of gradient elution was as follows (A: B, 0 min, 90:10; 1 min, 90:10; 1.01 min, 60:40; 5 min, 5:95; 7 min, 5:95; 7.01 min 90:10; 10 min 90:10). The flow rate was 0.8 mL/min. Multi-reaction monitoring mode was used for quantization. The quantitative ion pair was: phenylalanine, 165.85→120.20; tyrosine, 182.00→136.10; phenylpyruvate, 163.00→91.00.
Experimental design: The animals were divided into 6 groups, including: the normal control group, the model group, the low-dose of oral berberine treated model group, the high-dose of oral berberine treated model group, the intraperitoneal berberine treated model group, and the oral berberine treated pseudo-germ-free model group. The establishment of model started at 2 days old of SD suckling rats, which were administrated for 10 days, and then they were treated for 7 days.
(1) Normal control group: normal saline (s.c.).
(2) Model group: a-methylphenylalanine (s.c. 50 mg/kg/d), and phenylalanine (s.c. 200 mg/kg/d);
(3) Low-dose of oral berberine treated model group: α-methylphenylalanine (s.c. 50 mg/kg/d), phenylalanine (s.c. 200 mg/kg/d), berberine (oral, 100 mg/kg/d);
(4) High-dose of oral berberine treated model group: α-methylphenylalanine (s.c. 50 mg/kg/d), phenylalanine (s.c. 200 mg/kg/d), berberine (oral, 200 mg/kg/d);
(5) Intraperitoneal berberine treated model group: α-methylphenylalanine (s.c. 50 mg/kg/d), phenylalanine (s.c. 200 mg/kg/d), berberine (i.p. 20 mg/kg/d);
(6) Oral berberine treated pseudo-germ-free model group: α-methylphenylalanine (s.c. 50 mg/kg/d), phenylalanine (s.c. 200 mg/kg/d), berberine (oral, 200 mg/kg/d); Antibiotic dose: cefadroxil (100 mg/kg/d), oxytetracycline (300 mg/kg/d), erythromycin (300 mg/kg/d).

ICR mice [2] = experiment: Effect of dihydroberberine on blood phenylpyruvate and tyrosine in ICR mice; format: in vivo
Experimental: The concentrations of phenylpyruvate and tyrosine in blood are the key indicators to evaluate the therapeutic effect for phenylketonuria.
(§1) ICR mice (male, 20±2 g) were purchased from Beijing Vital River Laboratory Animal Technology Co., Ltd. All the animals were fed in SPF environment (21±2° C., 12-hour photoperiod) and had free access to food and water during the experiment. Berberine was purchased from the J&K Technology Co. LTD (Beijing, China). Dihydroberberine was purchased from the Mansite Biology & Technology Co. LTD (Chengdu, China). Phenylpyruvate, phenylalanine, and tyrosine were purchased from Solarbio Science&Technology Co. LTD (Beijing, China).
Experimental design: The animals were divided into three groups, including the control group, the 200 mg/kg dihydroberberine oral treated group at 12 h, the 200 mg/kg dihydroberberine oral treated group at 24 h.
(§2) (1) The control group: saline 0.2 mL (oral);
(2) The 100 mg/kg dihydroberberine singe oral treated group at 12 h: 100 mg/kg […] (oral);
(3) The 100 mg/kg dihydroberberine singe oral treated group at 24 h: 100 mg/kg […] (oral).

ICR mice [3] = experiment: Effect of jatrorrhizine on blood phenylpyruvate and tyrosine in ICR mice; format: in vivo
Experimental: The concentrations of phenylpyruvate and tyrosine in blood are the key indicators to evaluate the therapeutic effect for phenylketonuria in children.
as §1, with “China).” for “China). Dihydroberberine was purchased from the Mansite Biology & Technology Co. LTD (Chengdu, China).”
Experimental design: The animals were divided into three groups, including the control group, the 200 mg/kg jatrorrhizine oral treated group at 12 h, the 200 mg/kg jatrorrhizine oral treated group at 24 h.
as §2
(2) The 200 mg/kg jatrorrhizine singe oral treated group at 12 h: 200 mg/kg jatrorrhizine (oral);
(3) The 200 mg/kg jatrorrhizine single oral treated group at 24 h: 200 mg/kg jatrorrhizine (oral).

**Q.** How did the “Phenylalanine/tyrosine ratio in blood” value ([1]; intraperitoneal injection 20 mg/kg/d (FIG. 2)) turn out when `COc1ccc2cc3[n+](cc2c1OC)CCc1cc2c(cc1-3)OCO2` [berberine] was run?
**A.** The value was “not significantly changed”.

**Q.** What about the “Concentration of dopa in brain” value ([1]; intraperitoneal injection 20 mg/kg/d (FIG. 3)) of the same compound?
**A.** The value was “not significantly changed”.

**Q.** What about the “Concentration of dopamine in brain” value ([1]; intraperitoneal injection 20 mg/kg/d (FIG. 4)) of the same compound?
**A.** Its value is “not significantly changed”.

**Q.** And the “Phenylpyruvate level in blood” value ([1]; intraperitoneal injection 20 mg/kg/d, 7 days (FIG. 1))?
**A.** Its value is “not significantly changed”.

**Q.** What about the “Phenylpyruvate level in blood” value ([1]; oral 100 and 200 mg/kg/d for 7 days, vs model group, dose-dependent (FIG. 1)) of the same compound?
**A.** The value was “significantly decreased”.

**Q.** What about the “Phenylalanine/tyrosine ratio in blood” value ([1]; oral 100 and 200 mg/kg/d, vs model group, dose-dependent (FIG. 2)) of the same compound?
**A.** The value was “significantly decreased”.

**Q.** And the “Concentration of dopa in brain” value ([1]; oral 100 and 200 mg/kg/d, vs model group, dose-dependent (FIG. 3))?
**A.** Its value is “significantly increased”.

**Q.** And the “Concentration of dopamine in brain” value ([1]; oral 100 and 200 mg/kg/d, vs model group, dose-dependent (FIG. 4))?
**A.** Its value is “significantly increased”.

**Q.** And the “Level of tyrosine in blood” value ([1]; oral administration)?
**A.** Its value is “increase”.

**Q.** And the “Phenylpyruvate level in blood” value ([1]; pseudo-germ-free (antibiotic treated) model, oral 200 mg/kg/d (FIG. 1))?
**A.** The value was “not significantly changed”.

**Q.** What about the “Phenylalanine/tyrosine ratio in blood” value ([1]; pseudo-germ-free model, oral 200 mg/kg/d (FIG. 2)) of the same compound?
**A.** The value was “not significantly changed”.

**Q.** What about the “Concentration of dopa in brain” value ([1]; pseudo-germ-free model, oral 200 mg/kg/d (FIG. 3)) of the same compound?
**A.** The value was “not significantly changed”.

**Q.** And the “Concentration of dopamine in brain” value ([1]; pseudo-germ-free model, oral 200 mg/kg/d (FIG. 4))?
**A.** Its value is “not significantly changed”.

**Q.** Which results are given for `COc1ccc2c(c1OC)CN1CCc3cc4c(cc3C1=C2)OCO4` [dihydroberberine]?
**A.** Ratio of phenylalanine/tyrosine in blood (ICR mice [2]; oral administration): reduce; Tyrosine level in blood (ICR mice [2]; single oral 100 mg/kg (200 mg/kg), 12 h and 24 h, vs control (FIG. 7)): significantly increased; Phenylpyruvate level in blood (ICR mice [2]; single oral 100 mg/kg (200 mg/kg), 12 h and 24 h, vs control (FIG. 8)): significantly decreased

**Q.** Which “Ratio of phenylalanine/tyrosine in blood” value (ICR mice [3]; oral administration) does the source give for `COc1cc2c(cc1O)CC[n+]1cc3c(OC)c(OC)ccc3cc1-2` [jatrorrhizine] here?
**A.** The value was “reduce”.

**Q.** And the “Tyrosine level in blood” value (ICR mice [3]; single oral 200 mg/kg, 12 h and 24 h, vs control (FIG. 5))?
**A.** The value was “significantly increased”.

**Q.** And the “Phenylpyruvate level in blood” value (ICR mice [3]; single oral 200 mg/kg, 12 h and 24 h, vs control (FIG. 6))?
**A.** The value was “significantly decreased”.
